Reference: US5266596A, “L- or DL-threo-3-(3,4-dihydroxyphenyl)serine for the treatment of urinary incontinence” (priority 1991, dated 1993)

How the values were obtained:
[1] = in vivo; cited from earlier work
[2] = Acute toxicity (LD50) in mouse; conditions: in vivo
[3] = system: circulating system; conditions: cited from earlier work
[4] = system: patients; conditions: conventional use; cited from earlier work
[5] = system: patients with urinary incontinence; assay: Clinical test of L-threo-DOPS in patients with urinary incontinence (clinical effect and side effects); assay type: in vivo, human
Description: L-Threo-DOPS was administered (100 mg×3 times, a 4 weeks) to 13 patients with urinary incontinence in the clinic of urology. For estimating the effect on urinary incontinence and side effects, the patients were investigated medically before and after the treatment with L-Threo-Dops. […] Further, by urodynamic study, the patients were classified into urgent urinary incontinence (7 patients), stress urinary incontinence (3 patients) and other condition (3 patients).

[6] = system: aromatic L-amino acid decarboxylase; conditions: cited from earlier work
[7] = system: Harmalin-induced tremor; conditions: in vivo; cited from earlier work
[8] = system: urinary bladder; assay: Inner pressure of urinary bladder and urethra measured before and after administration (urodynamics); assay type: in vivo, human; conditions: some cases
Description: L-Threo-DOPS was administered (100 mg×3 times, a 4 weeks) to 13 patients with urinary incontinence in the clinic of urology. For estimating the effect on urinary incontinence and side effects, the patients were investigated medically before and after the treatment with L-Threo-Dops. The patients were 6 males and 7 females in the range of 35 to 76 years old, and were 51.8 years old in average. Further, by urodynamic study, the patients were classified into urgent urinary incontinence (7 patients), stress urinary incontinence (3 patients) and other condition (3 patients).

[9] = all 13 patients, 100 mg×3 times, 4 weeks
[10] = all of the cases, summary statement

N[C@H](C(=O)O)[C@H](O)c1ccc(O)c(O)c1 (relative stereo) [DL- or L-threo-DOPS, DL- or L-threo-3-(3,4-dihydroxyphenyl)serine]
Conversion into 1-NA after administration [1]: gradually converted into 1-NA | Distribution after administration [1]: distributed both centrally and peripherally

N[C@H](C(=O)O)[C@H](O)c1ccc(O)c(O)c1 (relative stereo) [active ingredient, DL- or L-threo-3-(3,4-dihydroxyphenyl)serine]
LD50 ([2]; ip, intraperitoneal): ~10000 mg/kg | LD50 ([2]; oral): ≥ 10000 mg/kg

NC[C@H](O)c1ccc(O)c(O)c1 [1-NA, 1-noradrenaline]
Duration ([3]; after injection): shorter, rather instantaneous | Effects on circulating system ([3]; immediately after injection): drastic effects on circulating system to cause hypertension and palpitation

CN(C)CCCN1c2ccccc2CCc2ccccc21 [Imipramine]
Side effects [4]: side effects such as thirst, constipation and nasal obstruction

N[C@H](C(=O)O)[C@H](O)c1ccc(O)c(O)c1 [L-threo-DOPS, L-threo-3-(3,4-dihydroxyphenyl)serine]
Side effect ([5]; Case 1, 300 mg/day × 4 weeks): None | Side effect ([5]; Case 2, 300 mg/day × 4 weeks): None | Side effect ([5]; Case 3, 300 mg/day × 4 weeks): None | Side effect ([5]; Case 4, 300 mg/day × 4 weeks): None | Side effect ([5]; Case 5, 300 mg (3) × 4 weeks): None | Side effect ([5]; Case 6, 300 mg (3) × 4 weeks): None | Side effect ([5]; Case 7, 300 mg (3) × 4 weeks): None | Clinical effect ([5]; Case 7, urgent urinary incontinence, 300 mg (3) × 4 weeks): improved | Side effect ([5]; Case 8, 300 mg (3) × 4 weeks): None | Clinical effect ([5]; Case 8, stress incontinence, 300 mg (3) × 4 weeks): improved | Side effect ([5]; Case 9, 300 mg/day × 4 weeks): None | Clinical effect ([5]; Case 9, stress incontinence, 300 mg/day × 4 weeks): Improved | Side effect ([5]; Case 10, 300 mg/day × 4 weeks): None | Side effect ([5]; Case 11, 300 mg/day × 4 weeks): None | Side effect ([5]; Case 12, 300 mg/day × 4 weeks): None | Side effect ([5]; Case 13, 300 mg/day × 4 weeks): None | Clinical effect ([5]; Case 13, Enuresis, 300 mg/day × 4 weeks): Improved | Cases with disappearance of the symptoms or improvement to a moderate degree or more, total [5, 9]: 9 cases | Remaining cases in which L-threo-DOPS was almost ineffective [5, 9]: 4 cases | Side effects such as urine discharge disturbance, palpitation and hypertension ([5]; all cases, 100 mg×3 times, 4 weeks): not noted | Side effects [5, 10]: no side effects were noted | Tendency of dysuria [5, 10]: even tendency of dysuria was not noted | Cases with clinical effect of more than a slight improvement ([5]; all patients, 100 mg×3 times, 4 weeks): 10 out of 13 | Cases with disappearance of the symptoms or improvement to a moderate degree or more ([5]; other condition, 100 mg×3 times, 4 weeks): 2 out of 3 | Patient satisfaction ([5]; patients improved, 100 mg×3 times, 4 weeks): highly satisfactory | Cases with disappearance of the symptoms or improvement to a moderate degree or more ([5]; stress urinary incontinence, 100 mg×3 times, 4 weeks): 2 out of 3 | Effect on urinary incontinence ([5]; summary statement): excellent effect on urinary incontinence | Cases with disappearance of the symptoms or improvement to a moderate degree or more ([5]; urgent urinary incontinence, 100 mg×3 times, 4 weeks): 5 out of 7 | Decarboxylation by aromatic L-amino acid decarboxylase to natural 1-noradrenaline [6]: undergo decarboxylation by the action of aromatic L-amino acid decarboxylase to produce natural 1-noradrenaline | Action on Harmalin-induced tremor [7]: inhibitory action on Harmalin-induced tremor | Volume of the urinary bladder [8]: increased volume of the urinary bladder was confirmed
